Measured values: patent US20240279202A1 (NURIX THERAPEUTICS, INC., priority 2021, published 2024)

Molecular target: T1, ITK (Homo sapiens, UniProt Q08881)
T1 sequence (Q08881 1-620): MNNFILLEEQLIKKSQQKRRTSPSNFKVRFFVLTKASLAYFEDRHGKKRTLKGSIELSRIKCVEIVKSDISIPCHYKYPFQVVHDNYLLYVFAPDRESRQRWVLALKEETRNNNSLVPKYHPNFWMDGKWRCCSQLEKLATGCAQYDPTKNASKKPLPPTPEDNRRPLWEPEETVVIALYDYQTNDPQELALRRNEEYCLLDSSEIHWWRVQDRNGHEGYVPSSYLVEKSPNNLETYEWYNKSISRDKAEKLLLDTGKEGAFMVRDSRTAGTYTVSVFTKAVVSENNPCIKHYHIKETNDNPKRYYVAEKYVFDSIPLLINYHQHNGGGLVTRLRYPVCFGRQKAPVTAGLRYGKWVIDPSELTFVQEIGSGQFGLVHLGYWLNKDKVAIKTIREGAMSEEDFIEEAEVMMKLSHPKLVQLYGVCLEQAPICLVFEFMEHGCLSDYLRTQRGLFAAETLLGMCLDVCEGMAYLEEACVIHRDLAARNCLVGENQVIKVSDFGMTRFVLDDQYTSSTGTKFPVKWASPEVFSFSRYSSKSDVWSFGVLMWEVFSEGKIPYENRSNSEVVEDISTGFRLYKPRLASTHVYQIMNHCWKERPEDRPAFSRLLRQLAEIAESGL
Test: ITK degradation MSD (Meso Scale Discovery) assay
Format: cell-based
Set-up: either human Jurkat (Clone E6-1 ATCC TIB-152) or Motl4 (ATCC CRL-1552), were plated; endogenous in cells; host or cells: Jurkat clone E6-1 (ATCC TIB-152) or Molt4 (ATCC CRL-1552)
Conditions: Jurkat or Molt4 cells, 4 or 6 hrs
Description: ITK Degradation MSD (Meso Scale Discovery) Assay Compound dilution series (7-point, 5 fold dilutions in DMSO, rows B-H with replicate in Column 1⁄2, 3⁄4, 5⁄6, 7,8, at 2000× the final required concentrations were prepared in 96 well plates (Falcon, cat. no. 353077). Row A, Column 1-8 were control DMSO. The 2000× solutions ranged from 2 mM to 128 nM (final assay concentration range 1 μM to […]). The 2000× solutions were added to cells in […], for a final DMSO concentration of 0.5% and final assay compound concentration of 1×. For the cells, either human Jurkat (Clone E6-1 ATCC TIB-152) or Motl4 (ATCC CRL-1552), were plated at 1×10^6 cells/mL, 100 μL/well ([…]) in complete RPMI (10% FBS, 1% L-glutamine). Cells were incubated for 4 or 6 hrs at 32° C./6% CO2. Following incubation, plates were centrifuged at 1200 rpm for 5 min. supernatant was removed and 50 μL of cell lysis buffer ((MSD Tris lysis buffer (R60TX), Complete Mini EDTA-free protease inhibitor (Sigma 11836170001), Protease Inhibitor Cocktail (Sigma, P2714), Phosphatase Inhibitor Cocktail 2 and 3 (Sigma, P5726 and P0044), and Benzonase (Sigma, E1014)) was added to each well. Plates were sealed and shook at 4° C. for 30 min. Plates were centrifuged and 45 μL was removed for plate assays. Assay plate preparation: Meso Scale Discovery (MSD) multi-array sm spot 96 well plates (Goat anti-Rabbit L^45-RA), were blocked with 3% BSA blocking buffer (3% Bovine Serum Albumin (Sigma A3059)+TBS 0.2% Tween-20) for 1 hr with gentle rocking at room temperature. Plates were then washed with 200 μL of 1× TBST (TBS 0.2% Tween-20) 3 times. After last wash, liquid was removed and 50 μL per well of capture antibody (abcam ITK Y402-ab32507) was added to plates at a 1:1000 dilution in blocking buffer (above). Plates were sealed and rocked at room temperature for 2 hrs. Plates were then washed 3 times with 200 μL of 1× TBST. After last wash, liquid was removed and 45 μL of cell lysate (from above) was added to each plate. Plates were sealed and rocked overnight at 4° C. Next day, cell lysates were removed, and assay plates were washed 3 times with 200 μL of 1× TBST. After last wash, liquid was removed and detection antibody (CST ITK (2F12) #2380) was added at 50 μL per well at a dilution of 1:1000 in blocking buffer. Plates were sealed and rocked at room temperature for 2 hrs. Plates were washed 3 times with 200 uL of 1× TBST. After last wash, liquid was removed, MSD Mouse anti-Rabbit sulfo tag (R32AC-1) was diluted to 1:1000 in blocking buffer. 50 μL was added to each well on the plate. Plates were sealed and incubated at room temperature for 1 hr. Plates were washed 3 times with 200 μL of 1× TBST. After last wash, liquid was removed and 150 μL of 1× MSD Read Buffer T ([…]) was then added to each well for ECL read out. For reading ECL signal, plate is read on a Meso Scale Discovery (MSD) MESO Sector S 600 plate reader. Percent ITK in then calculated as described below. Percent ITK remaining per sample was calculated as follows: [formula] Using Graphpad Prism, % ITK remaining values were plotted as a function of compound concentration. To determine DC50 and Dmax values, resulting curves were fit to the Prism curve-fitting equation “log(inhibitor) vs response-Variable slope (four parameters)” (reported best fit value IC50 used as DC50).

SMILES | DC50 [nM] | Dmax [%]
C[C@@H](C(=O)N(C)c1ccc2cc(-c3n[nH]c4c3CCC(C)(C)C4)[nH]c2c1)N1CCN(C[C@H]2CCN(c3ccc4c(c3)C(=O)N(C3CCC(=O)NC3=O)C4=O)C2)CC1 (stereo partly drawn) [Compound 33, (2S)—N-(2-(6,6-dimethyl-4,5,6,7-tetrahydro-1H-indazol-3-yl)-1H-indol-6-yl)-2-(4-(((3R)-1-(2-(2,6-dioxopiperidin-3-yl)-1,3-dioxoisoindolin-5-yl)pyrrolidin-3-yl)methyl)piperazin-1-yl)-N-methylpropanamide] | 1.6 | 87
C[C@@H](C(=O)N(C)c1ccc2cc(-c3n[nH]c4c3CCC(C)(C)C4)[nH]c2c1)N1CCN(CC2CCN(c3ccc4c(c3)n(C)c(=O)n4C3CCC(=O)NC3=O)CC2)CC1 (stereo partly drawn) [Compound 6, (2S)—N-(2-(6,6-dimethyl-4,5,6,7-tetrahydro-1H-indazol-3-yl)-1H-indol-6-yl)-2-(4-((1-(1-(2,6-dioxopiperidin-3-yl)-3-methyl-2-oxo-2,3-dihydro-1H-benzo[d]imidazol-5-yl)piperidin-4-yl)methyl)piperazin-1-yl)-N-methylpropanamide] | 0.0041 | 81
CN(C(=O)CCN1CCN(c2ccc3c(c2)C(=O)N(C2CCC(=O)NC2=O)C3=O)CC1)c1ccc2cc(-c3n[nH]c4c3CCC(C)(C)C4)[nH]c2c1 (centres unmarked) [Compound 2, N-(2-(6,6-dimethyl-4,5,6,7-tetrahydro-1H-indazol-3-yl)-1H-indol-6-yl)-3-(4-(2-(2,6-dioxopiperidin-3-yl)-1,3-dioxoisoindolin-5-yl)piperazin-1-yl)-N-methylpropanamide] | 1.1 | 84
C[C@@H](C(=O)N(C)c1ccc2cc(-c3n[nH]c4c3CCC(C)(C)C4)[nH]c2c1)N1CCN(C(=O)C2CN(C3CCN(c4ccc5c(c4)C(=O)N(C4CCC(=O)NC4=O)C5=O)CC3)C2)CC1 (stereo partly drawn) [Compound 34, (2S)—N-(2-(6,6-dimethyl-4,5,6,7-tetrahydro-1H-indazol-3-yl)-1H-indol-6-yl)-2-(4-(1-(1-(2-(2,6-dioxopiperidin-3-yl)-1,3-dioxoisoindolin-5-yl)piperidin-4-yl)azetidine-3-carbonyl)piperazin-1-yl)-N-methylpropanamide] | 1 | 86
CN(C(=O)C1CN(C2CCN(c3ccc4c(c3)C(=O)N(C3CCC(=O)NC3=O)C4=O)CC2)C1)c1ccc2cc(-c3n[nH]c4c3CCC(C)(C)C4)[nH]c2c1 (centres unmarked) [Compound 35, N-(2-(6,6-dimethyl-4,5,6,7-tetrahydro-1H-indazol-3-yl)-1H-indol-6-yl)-1-(1-(2-(2,6-dioxopiperidin-3-yl)-1,3-dioxoisoindolin-5-yl)piperidin-4-yl)-N-methylazetidine-3-carboxamide] | 8 | 83
C[C@@H](C(=O)N(C)c1ccc2cc(-c3n[nH]c4c3CCC(C)(C)C4)[nH]c2c1)N1CCN(CC2CCN(c3ccc(C(=O)NC4CCC(=O)NC4=O)nc3)CC2)CC1 (stereo partly drawn) [Compound 7, 5-(4-((4-((S)-1-((2-(6,6-dimethyl-4,5,6,7-tetrahydro-1H-indazol-3-yl)-1H-indol-6-yl)(methyl)amino)-1-oxopropan-2-yl)piperazin-1-yl)methyl)piperidin-1-yl)-N-(2,6-dioxopiperidin-3-yl)picolinamide] | 10 | 83
CN(C(=O)CCC1CCN(c2ccc3c(c2)C(=O)N(C2CCC(=O)NC2=O)C3=O)C1)c1ccc2cc(-c3n[nH]c4c3CCC(C)(C)C4)[nH]c2c1 (centres unmarked) [Compound 1, N-(2-(6,6-dimethyl-4,5,6,7-tetrahydro-1H-indazol-3-yl)-1H-indol-6-yl)-3-(1-(2-(2,6-dioxopiperidin-3-yl)-1,3-dioxoisoindolin-5-yl)pyrrolidin-3-yl)-N-methylpropanamide] | 7 | 87
